Here are results for 17 molecules from PubChem BioAssay AID192 (DTP/NCI, 2004).

Molecules are shown by their SMILES. Several values for one entry are separate records, joined by “and”; a condition that tells them apart may be missing. Equal entries are not always repeated. Toxic doses and inconclusive results are not listed.

This assay deals with BDF1 mice, B16 melanoma ip, median survival T/C. Nature of the assay: NCI In Vivo Anticancer Drug Screen. Data for tumor model B16 Melanoma (intraperitoneal) in B6D2F1 (BDF1) mice. The note with it: endpoint: median survival time, higher = longer survival. The procedure, abridged: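 Tumor-bearing mice received test compound or vehicle. Survival or tumor size was then measured in both groups. The treated-group figure was divided by the control-group figure.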

Setting [1] is: dose: 50.0 mg/kg/injection, schedule: Q01DX009 (ip), vehicle: saline with Tween-80.
[2] abbreviates: dose: 12.5 mg/kg/injection, schedule: Q01DX009 (ip), vehicle: saline with Tween-80.
The mark [3] stands for this setting: dose: 25.0 mg/kg/injection, schedule: Q01DX009 (ip), vehicle: saline with Tween-80.
Where [4] appears, read: dose: 12.5 mg/kg/injection, schedule: Q01DX009 (ip), vehicle: Klucel (hydroxypropylcellulose) (HPC).
Where [5] appears, read: dose: 25.0 mg/kg/injection, schedule: Q01DX009 (ip), vehicle: Klucel (hydroxypropylcellulose) (HPC).
The mark [6] stands for this setting: dose: 50.0 mg/kg/injection, schedule: Q01DX009 (ip), vehicle: Klucel (hydroxypropylcellulose) (HPC).
Where [7] appears, read: dose: 6.25 mg/kg/injection, schedule: Q01DX009 (ip), vehicle: saline.
Setting [8] is: dose: 12.5 mg/kg/injection, schedule: Q01DX009 (ip), vehicle: saline.
[9] abbreviates: dose: 25.0 mg/kg/injection, schedule: Q01DX009 (ip), vehicle: saline.
Where [10] appears, read: dose: 50.0 mg/kg/injection, schedule: Q01DX009 (ip), vehicle: saline.
Setting [11] is: dose: 100.0 mg/kg/injection, schedule: Q01DX009 (ip), vehicle: saline.

On to `CCCCCCC1N(Cc2ccccc2N(C)C)CCCN1Cc1ccccc1N(C)C`, for which the T/C (dose: 75.0 mg/kg/injection, schedule: Q01DX009 (ip), vehicle: saline) is 97 % of control.

Regarding `CC(C)(C)C1CCC(C(=O)O)CC1` (configuration not stated), the T/C reads like this: under setting [1], 95 % of control; (dose: 100.0 mg/kg/injection, schedule: Q01DX009 (ip), vehicle: saline with Tween-80) 90 % of control; (dose: 200.0 mg/kg/injection, schedule: Q01DX009 (ip), vehicle: saline with Tween-80) 90 % of control.

As to `COc1cccc2c1C(=O)c1c(O)c3c(c(O)c1C2=O)C[C@@](O)(C(=O)COC(=O)Cc1cccc2ccccc12)C[C@@H]3OC1CC(N)C(O)C(C)O1` (some centres not stated), the T/C (dose: 0.5 mg/kg/injection, schedule: Q01DX009 (ip), vehicle: saline with Tween-80) was 169 % of control; the T/C (dose: 1.0 mg/kg/injection, schedule: Q01DX009 (ip), vehicle: saline with Tween-80) was 150 % of control and 227 % of control; the T/C (dose: 2.0 mg/kg/injection, schedule: Q01DX009 (ip), vehicle: saline with Tween-80) is 169 % of control and 238 % of control; the T/C (dose: 4.0 mg/kg/injection, schedule: Q01DX009 (ip), vehicle: saline with Tween-80) was 192 % of control and 284 % of control.

For the molecule `CC(C)C(Br)C(=O)NCC(=O)O` (configuration not stated), the T/C under setting [2] is 101 % of control, the T/C under setting [3] is 95 % of control and the T/C under setting [1] is 102 % of control.

Take `Cc1cc(C(=O)NNCc2ccccc2)no1`: the T/C was 88 % of control and 98 % of control (dose: 3.12 mg/kg/injection, schedule: Q01DX009 (ip), vehicle: Klucel (hydroxypropylcellulose) (HPC)); 88 % of control and 98 % of control (dose: 6.25 mg/kg/injection, schedule: Q01DX009 (ip), vehicle: Klucel (hydroxypropylcellulose) (HPC)); 99 % of control under setting [4]; 90 % of control and 92 % of control and 102 % of control under setting [5]; 90 % of control under setting [6].

As to `NCCCC(NN)C(=O)O` (configuration not stated), the T/C by setting is: (dose: 7.5 mg/kg/injection, schedule: Q01DX009 (ip), vehicle: saline) 109 % of control; (dose: 15.0 mg/kg/injection, schedule: Q01DX009 (ip), vehicle: saline) 111 % of control; (dose: 30.0 mg/kg/injection, schedule: Q01DX009 (ip), vehicle: saline) 104 % of control.

`O=C(O)C(=O)O`: the T/C reads like this: under setting [7], 101 % of control; under setting [8], 105 % of control; under setting [9], 96 % of control and 108 % of control; under setting [10], 95 % of control.

`CC(=O)[C@H]1CC[C@H]2[C@@H]3C[C@H](F)C4=CC(=O)CC[C@]4(C)[C@@]3(F)[C@@H](O)C[C@]12C`: the T/C is, setting by setting: under setting [4], 95 % of control; under setting [5], 97 % of control; under setting [6], 104 % of control; (dose: 100.0 mg/kg/injection, schedule: Q04DX003 (ip), vehicle: saline with Tween-80) 102 % of control; (dose: 200.0 mg/kg/injection, schedule: Q04DX003 (ip), vehicle: saline with Tween-80) 110 % of control; (dose: 400.0 mg/kg/injection, schedule: Q04DX003 (ip), vehicle: saline with Tween-80) 110 % of control.

On to `COc1cccc2c1C(=O)c1c(O)c3c(c(O)c1C2=O)C[C@@](O)(C(=O)COC(=O)c1cccnc1)C[C@@H]3OC1CC(N)C(O)C(C)O1` (some centres not stated), for which the T/C by setting is: (dose: 0.19 mg/kg/injection, schedule: Q01DX001 (ip), vehicle: water) 92 % of control; (dose: 0.38 mg/kg/injection, schedule: Q01DX001 (ip), vehicle: water) 101 % of control; (dose: 0.75 mg/kg/injection, schedule: Q01DX001 (ip), vehicle: water) 108 % of control; (dose: 3.0 mg/kg/injection, schedule: Q01DX001 (ip), vehicle: water) 113 % of control and 239 % of control and 249 % of control; (dose: 6.0 mg/kg/injection, schedule: Q01DX001 (ip), vehicle: water) 103 % of control and 250 % of control and 255 % of control; (dose: 12.0 mg/kg/injection, schedule: Q01DX001 (ip), vehicle: water) 251 % of control and 323 % of control. Moreover, where the note is “dose: 24.0 mg/kg/injection, schedule: Q01DX001 (ip), vehicle: water”, the T/C is 325 % of control.

Consider `O=C(Oc1ccc(-c2ccc(Br)cc2)cc1)c1ccco1`, for which the T/C under setting [1] is 88 % of control.

As for `CCOC(=O)NC(C(=O)OC)C(=O)OC`, the T/C was 95 % of control (dose: 100.0 mg/kg/injection, schedule: Q04DX003 (ip), vehicle: Klucel (hydroxypropylcellulose) (HPC)); 93 % of control (dose: 200.0 mg/kg/injection, schedule: Q01DX009 (ip), vehicle: Klucel (hydroxypropylcellulose) (HPC)); 97 % of control (dose: 200.0 mg/kg/injection, schedule: Q04DX003 (ip), vehicle: Klucel (hydroxypropylcellulose) (HPC)); 87 % of control (dose: 400.0 mg/kg/injection, schedule: Q01DX009 (ip), vehicle: Klucel (hydroxypropylcellulose) (HPC)); 90 % of control (dose: 400.0 mg/kg/injection, schedule: Q04DX003 (ip), vehicle: Klucel (hydroxypropylcellulose) (HPC)).

`O=CC(NC(=O)N(CCCl)N=O)C(O)C(O)C(O)CO` (configuration not stated): the T/C reads like this: (dose: 1.3 mg/kg/injection, schedule: Q01DX009 (ip), vehicle: saline) 153 % of control; (dose: 3.0 mg/kg/injection, schedule: Q01DX009 (ip), vehicle: saline) 101 % of control and 201 % of control; (dose: 4.0 mg/kg/injection, schedule: Q01DX009 (ip), vehicle: saline) 198 % of control; (dose: 4.5 mg/kg/injection, schedule: Q01DX009 (ip), vehicle: saline) 109 % of control and 201 % of control; (dose: 6.25 mg/kg/injection, schedule: Q01DX001 (ip), vehicle: saline) 154 % of control; (dose: 6.7 mg/kg/injection, schedule: Q01DX009 (ip), vehicle: saline) 287 % of control. Also, the T/C was 184 % of control (dose: 7.5 mg/kg/injection, schedule: Q01DX001 (ip), vehicle: saline with Tween-80); 91 % of control (dose: 8.0 mg/kg/injection, schedule: Q01DX009 (ip), vehicle: saline); 159 % of control (dose: 10.0 mg/kg/injection, schedule: Q01DX009 (ip), vehicle: saline); 191 % of control (dose: 12.5 mg/kg/injection, schedule: Q01DX001 (ip), vehicle: saline); 201 % of control (dose: 13.0 mg/kg/injection, schedule: Q01DX001 (ip), vehicle: saline); 284 % of control (dose: 15.0 mg/kg/injection, schedule: Q01DX001 (ip), vehicle: saline with Tween-80). For the same molecule, the T/C runs as follows: (dose: 20.0 mg/kg/injection, schedule: Q01DX001 (ip), vehicle: saline) 163 % of control and 259 % of control; (dose: 25.0 mg/kg/injection, schedule: Q01DX001 (ip), vehicle: saline) 277 % of control; (dose: 30.0 mg/kg/injection, schedule: Q01DX001 (ip), vehicle: saline with Tween-80) 285 % of control; (dose: 30.0 mg/kg/injection, schedule: Q01DX001 (ip), vehicle: saline) 114 % of control and 287 % of control; (dose: 67.0 mg/kg/injection, schedule: Q01DX001 (ip), vehicle: saline) 287 % of control.

Turning to `OCCOCCN1CCN(C(c2ccccc2)c2ccc(Cl)cc2)CC1` (configuration not stated), the T/C was 97 % of control (dose: 3.12 mg/kg/injection, schedule: Q01DX009 (ip), vehicle: saline); 102 % of control under setting [7]; 105 % of control under setting [8]; 97 % of control under setting [9]; 100 % of control under setting [10]; 102 % of control under setting [11].

On to `CO[C@@H]1[C@H](O)CC[C@]2(CO2)[C@H]1[C@@]1(C)O[C@@H]1CC=C(C)C`, for which the T/C is, setting by setting: (dose: 3.13 mg/kg/injection, schedule: Q01DX009 (ip), vehicle: saline with Tween-80) 104 % of control; (dose: 6.25 mg/kg/injection, schedule: Q01DX009 (ip), vehicle: saline with Tween-80) 102 % of control; under setting [2], 102 % of control; under setting [3], 108 % of control; under setting [1], 123 % of control.

With `CCNCC#CCNCC`, the T/C was 107 % of control under setting [10] and 94 % of control under setting [11].

Turning to `OC1COCOC1` (tested in a mixture with another compound), the T/C under setting [11] is 115 % of control; the T/C (dose: 200.0 mg/kg/injection, schedule: Q01DX009 (ip), vehicle: saline) is 106 % of control; the T/C (dose: 400.0 mg/kg/injection, schedule: Q01DX009 (ip), vehicle: saline) is 106 % of control.

For the molecule `Cn1c(O)c(C=N)c(=O)[nH]c1=O`, the T/C reads like this: (dose: 75.0 mg/kg/injection, schedule: Q01DX009 (ip), vehicle: Klucel (hydroxypropylcellulose) (HPC)) 90 % of control; (dose: 300.0 mg/kg/injection, schedule: Q01DX009 (ip), vehicle: Klucel (hydroxypropylcellulose) (HPC)) 90 % of control.
